Results reported in US20240041042A1, “1-(PYRIDYL)-5-AZINYLPYRAZOLE DERIVATIVES, AND THEIR USE FOR CONTROL OF UNDESIRED PLANT GROWTH” (Bayer Aktiengesellschaft, priority 2020, published 2024).

How the values were obtained:
Format in all cases: in vivo
Lolium rigidum (LOLRI) [1] = test: Pre-emergence herbicidal action against LOLRI
Description: (§1) Seeds of monocotyledonous and dicotyledonous weed plants and crop plants are placed in plastic or organic planting pots and covered with soil. The compounds of the invention, formulated in the form of wettable powders (WP) or as emulsion concentrates (EC), are then applied to the surface of the covering soil as aqueous suspension or emulsion with addition of 0.5% additive at a water application rate equivalent to 600 l/ha. After the treatment, the pots are placed in a greenhouse and kept under good growth conditions for the trial plants. After about 3 weeks, the effect of the preparations is scored visually in comparison with untreated controls as percentages. For example, 100% activity=the plants have died, 0% activity=like control plants.
(§2) Tables A1 to A13 below show the effects of selected compounds of the general formula (I) on various harmful plants and at an application rate corresponding to 320 g/ha or lower, which were obtained by the experimental procedure mentioned above. The appendices “a”, “b” and “c” give differentiation by dosage used with otherwise the same harmful plants tested.

[2] = test system: Pharbitis purpurea (PHBPU); test: Post-emergence herbicidal action against PHBPU; details: dosage 320 g/ha
Experimental: (§3) Seeds of monocotyledonous and dicotyledonous weeds and crop plants are placed in sandy loam in plastic or organic planting pots, covered with soil and cultivated in a greenhouse under controlled growth conditions. 2 to 3 weeks after sowing, the test plants are treated at the one-leaf stage. The compounds of the invention, formulated in the form of wettable powders (WP) or as emulsion concentrates (EC), are then sprayed onto the green parts of the plants as aqueous suspension or emulsion with addition of 0.5% additive at a water application rate of 600 l/ha (converted). After the test plants have been kept in the greenhouse under optimum growth conditions for about 3 weeks, the activity of the preparations is rated visually in comparison to untreated controls. For example, 100% activity=the plants have died, 0% activity=like control plants.
(§4) Tables B1 to B13 below show the effects of selected compounds of the general formula (I) according to Table 1 on various harmful plants and at an application rate corresponding to 320 g/ha or lower, which were obtained by the experimental procedure mentioned above. The appendices “a”, “b” and “c” give differentiation by dosage used with otherwise the same harmful plants tested.

Oryza sativa (ORYSA) = details: crop plant compatibility, 80 g/ha, effect in comparison to untreated controls
Experimental: as §3
(§5) The observed effects on selected crop plants are reported here in comparison to the untreated controls (values in %). The appendices “a”, “b” and “c” give differentiation by dosage used with otherwise the same crop plants tested.

Zea mays (ZEAMX) = details: crop plant compatibility, 80 g/ha, effect vs untreated controls
Experimental: as §3, §5

[3] = test system: Polygonum convolvulus (POLCO); test: Post-emergence herbicidal action against POLCO
Experimental: as §3, §4

Setaria viridis (SETVI) [4] = test: Pre-emergence herbicidal action against SETVI; details: dosage 320 g/ha
Description: as §1, §2

Avena fatua (AVEFA) [5] = test: Pre-emergence herbicidal action against AVEFA; details: visual scoring after about 3 weeks vs untreated controls
Description: as §1, §2

Lolium rigidum (LOLRI) [6] = test: Post-emergence herbicidal action against LOLRI; details: dosage 320 g/ha
Experimental: as §3, §4

[7] = test system: Matricaria inodora (MATIN); test: Pre-emergence herbicidal action against MATIN; details: dosage 320 g/ha
Description: as §1, §2

[8] = test system: Verconica persica (VERPE); test: Pre-emergence herbicidal action against VERPE; details: dosage 320 g/ha
Description: as §1, §2

Setaria viridis (SETVI) [9] = test: Post-emergence herbicidal action against SETVI
Experimental: as §3, §4

Viola tricolor (VIOTR) [10] = test: Pre-emergence herbicidal action against VIOTR
Description: as §1, §2

[11] = test system: Echinochloa crus-galli (ECHCG); test: Pre-emergence herbicidal action against ECHCG; details: dosage 320 g/ha
Description: as §1, §2

[12] = test system: Echinochloa crus-galli (ECHCG); test: Post-emergence herbicidal action against ECHCG; details: dosage 320 g/ha
Experimental: as §3, §4

[13] = test system: Amaranthus retroflexus (AMARE); test: Post-emergence herbicidal action against AMARE
Experimental: as §3, §4

[14] = test system: Alopecurus myosuroides (ALOMY); test: Pre-emergence herbicidal action against ALOMY; details: scored visually after about 3 weeks, 100% = plants have died
Description: as §1, §2

[15] = test system: Verconica persica (VERPE); test: Post-emergence herbicidal action against VERPE; details: 320 g/ha, VERPE
Experimental: as §3, §4

[16] = test system: Amaranthus retroflexus (AMARE); test: Pre-emergence herbicidal action against AMARE; details: visual scoring after about 3 weeks vs untreated controls
Description: as §1, §2

[17] = test system: Abutilon theophrasti (ABUTH); test: Post-emergence herbicidal action against ABUTH; details: 320 g/ha, visual rating about 3 weeks after treatment vs untreated controls (100% = plants have died, 0% = like control plants)
Experimental: as §3, §4

Viola tricolor (VIOTR) [18] = test: Post-emergence herbicidal action against VIOTR
Experimental: as §3, §4

[19] = test system: Matricaria inodora (MATIN); test: Post-emergence herbicidal action against MATIN; details: dosage 320 g/ha
Experimental: as §3, §4

Avena fatua (AVEFA) [20] = test: Post-emergence herbicidal action against AVEFA; details: visual rating about 3 weeks after treatment
Experimental: as §3, §4

[21] = test system: Polygonum convolvulus (POLCO); test: Pre-emergence herbicidal action against POLCO
Description: as §1, §2

[22] = test system: Alopecurus myosuroides (ALOMY); test: Post-emergence herbicidal action against ALOMY; details: visual rating about 3 weeks after treatment vs untreated controls (100% = plants have died, 0% = like control plants)
Experimental: as §3, §4

CC(Oc1nn(-c2ccccn2)c(-c2ccc(F)nc2)c1C(F)(F)F)C(=O)O (stereo not drawn) [Example I-94]
90%: Post-emergence action against POLCO in % ([3]; dosage 320 g/ha) | Pre-emergence action against AVEFA in % (Avena fatua (AVEFA) [5]; 320 g/ha) | Pre-emergence action against VERPE in % [8] | Post-emergence action against SETVI in % (Setaria viridis (SETVI) [9]; dosage 320 g/ha) | Post-emergence action against ECHCG in % [12] | Post-emergence action against AMARE in % ([13]; 80 g/ha, visual rating about 3 weeks after treatment vs untreated controls (100% = plants have died, 0% = like control plants)) | Post-emergence action against AMARE in % ([13]; 320 g/ha, visual rating about 3 weeks after treatment) | Post-emergence action against VERPE in % [15] | Post-emergence action against VIOTR in % (Viola tricolor (VIOTR) [18]; 80 g/ha) | Post-emergence action against VIOTR in % (Viola tricolor (VIOTR) [18]; 320 g/ha) | Pre-emergence action against POLCO in % ([21]; dosage 80 g/ha) | Pre-emergence action against POLCO in % ([21]; dosage 320 g/ha)
20%: Post-emergence action against ORYSA in % (Oryza sativa (ORYSA)) | Post-emergence action against ZEAMX in % (Zea mays (ZEAMX))
100%: Pre-emergence action against LOLRI in % (Lolium rigidum (LOLRI) [1]; dosage 80 g/ha) | Pre-emergence action against LOLRI in % (Lolium rigidum (LOLRI) [1]; dosage 320 g/ha) | Pre-emergence action against SETVI in % (Setaria viridis (SETVI) [4]) | Post-emergence action against LOLRI in % (Lolium rigidum (LOLRI) [6]) | Pre-emergence action against MATIN in % [7] | Pre-emergence action against VIOTR in % (Viola tricolor (VIOTR) [10]; 320 g/ha, Viola tricolor) | Pre-emergence action against VIOTR in % (Viola tricolor (VIOTR) [10]; dosage 80 g/ha) | Pre-emergence action against ALOMY ([14]; 320 g/ha) | Pre-emergence action against AMARE in % ([16]; 320 g/ha) | Post-emergence action against AVEFA in % (Avena fatua (AVEFA) [20]; 320 g/ha) | Post-emergence action against ALOMY in % ([22]; 320 g/ha)
80%: Post-emergence action against PHBPU in % [2] | Post-emergence action against POLCO in % ([3]; dosage 80 g/ha) | Pre-emergence action against AVEFA in % (Avena fatua (AVEFA) [5]; 80 g/ha) | Post-emergence action against SETVI in % (Setaria viridis (SETVI) [9]; dosage 80 g/ha) | Pre-emergence action against ECHCG in % [11] | Pre-emergence action against ALOMY ([14]; 80 g/ha) | Pre-emergence action against AMARE in % ([16]; 80 g/ha) | Post-emergence action against ABUTH in % [17] | Post-emergence action against MATIN in % [19] | Post-emergence action against AVEFA in % (Avena fatua (AVEFA) [20]; 80 g/ha) | Post-emergence action against ALOMY in % ([22]; 80 g/ha)
